# Experimental data: US20230364070A1, “PYRROLO[3,2-C]PYRIDIN-4-ONE DERIVATIVES USEFUL IN THE TREATMENT OF CANCER” (Scorpion Therapeutics, Inc., priority 2020, published 2023)
# Key:
# Format in all cases: cell-based
# [1] = biological target: T1, pEGFR in Ba/F3 cells expressing EGFR exon 20 NPG Ins D770_N771 (Homo sapiens, UniProt P00533, INS770NPG); assay: Inhibitor activity on EGFR phosphorylation (pEGFR AlphaLISA, 2 h), Ba/F3 EGFR exon 20 NPG insertion; details: Ba/F3 EGFR exon 20 NPG Ins D770_N771
# T1 construct: expressed in transfected cells; host or cells: Ba/F3 (murine pro-B cells), retroviral transduction, puromycin selection, IL3-independent pool
# T1 sequence (P00533 with tags, fused parts or gaps INS770NPG): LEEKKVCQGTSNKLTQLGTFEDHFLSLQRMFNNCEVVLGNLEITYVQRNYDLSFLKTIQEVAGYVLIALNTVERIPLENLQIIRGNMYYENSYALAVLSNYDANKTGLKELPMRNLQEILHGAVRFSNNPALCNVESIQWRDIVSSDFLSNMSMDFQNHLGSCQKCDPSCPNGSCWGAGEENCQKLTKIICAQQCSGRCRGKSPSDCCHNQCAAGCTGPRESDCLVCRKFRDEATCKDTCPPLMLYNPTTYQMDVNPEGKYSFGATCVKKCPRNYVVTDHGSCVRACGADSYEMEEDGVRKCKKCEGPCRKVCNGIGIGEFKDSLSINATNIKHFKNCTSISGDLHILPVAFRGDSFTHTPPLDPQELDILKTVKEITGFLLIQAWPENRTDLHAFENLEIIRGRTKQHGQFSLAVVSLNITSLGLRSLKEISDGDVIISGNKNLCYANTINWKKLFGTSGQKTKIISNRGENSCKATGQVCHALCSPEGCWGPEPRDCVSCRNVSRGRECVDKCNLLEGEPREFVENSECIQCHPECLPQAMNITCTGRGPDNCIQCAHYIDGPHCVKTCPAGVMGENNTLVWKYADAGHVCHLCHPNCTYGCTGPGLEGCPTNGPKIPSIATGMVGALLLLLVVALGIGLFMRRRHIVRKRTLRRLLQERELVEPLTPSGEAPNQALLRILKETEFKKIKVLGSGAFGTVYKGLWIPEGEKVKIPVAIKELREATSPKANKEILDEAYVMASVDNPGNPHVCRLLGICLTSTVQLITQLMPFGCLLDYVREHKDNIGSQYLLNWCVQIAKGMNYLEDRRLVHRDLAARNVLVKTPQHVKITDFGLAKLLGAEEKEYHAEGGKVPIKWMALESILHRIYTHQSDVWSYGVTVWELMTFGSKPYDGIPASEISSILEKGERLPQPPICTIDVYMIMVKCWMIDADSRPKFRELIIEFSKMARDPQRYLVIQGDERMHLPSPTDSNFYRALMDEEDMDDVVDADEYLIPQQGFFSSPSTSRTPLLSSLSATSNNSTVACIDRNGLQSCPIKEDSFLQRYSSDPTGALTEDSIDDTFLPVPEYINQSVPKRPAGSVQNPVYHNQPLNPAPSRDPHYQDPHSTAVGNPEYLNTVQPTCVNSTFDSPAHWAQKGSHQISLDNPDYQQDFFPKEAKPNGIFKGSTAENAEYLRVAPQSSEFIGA
# [2] = biological target: T2, Ba/F3 cells with EGFR exon 20 NPG Ins D770_N771 (Homo sapiens, UniProt P00533, INS770NPG); assay: EGFR activity: Ba/F3 cell viability (CellTiter-Glo, 72 h), EGFR exon 20 NPG insertion; details: EGFR exon 20 NPG Ins D770_N771, cell viability, read-out: BaF3 NPG IC50
# T2 construct: expressed in transfected cells; host or cells: Ba/F3 (murine pro-B cells), retroviral transduction, puromycin selection, IL3-independent pool
# T2 sequence (P00533 with tags, fused parts or gaps INS770NPG): as above
# Ba/F3 cells with EGFR WT = biological target: T3, Ba/F3 cells with EGFR WT (Homo sapiens, UniProt P00533); assay: EGFR activity: Ba/F3 cell viability (CellTiter-Glo, 72 h), EGFR WT; details: read-out: BaF3 WT IC50
# T3 construct: expressed in transfected cells; host or cells: Ba/F3 (murine pro-B cells), retroviral transduction, puromycin selection, maintained with EGF
# T3 sequence (P00533 25-1210): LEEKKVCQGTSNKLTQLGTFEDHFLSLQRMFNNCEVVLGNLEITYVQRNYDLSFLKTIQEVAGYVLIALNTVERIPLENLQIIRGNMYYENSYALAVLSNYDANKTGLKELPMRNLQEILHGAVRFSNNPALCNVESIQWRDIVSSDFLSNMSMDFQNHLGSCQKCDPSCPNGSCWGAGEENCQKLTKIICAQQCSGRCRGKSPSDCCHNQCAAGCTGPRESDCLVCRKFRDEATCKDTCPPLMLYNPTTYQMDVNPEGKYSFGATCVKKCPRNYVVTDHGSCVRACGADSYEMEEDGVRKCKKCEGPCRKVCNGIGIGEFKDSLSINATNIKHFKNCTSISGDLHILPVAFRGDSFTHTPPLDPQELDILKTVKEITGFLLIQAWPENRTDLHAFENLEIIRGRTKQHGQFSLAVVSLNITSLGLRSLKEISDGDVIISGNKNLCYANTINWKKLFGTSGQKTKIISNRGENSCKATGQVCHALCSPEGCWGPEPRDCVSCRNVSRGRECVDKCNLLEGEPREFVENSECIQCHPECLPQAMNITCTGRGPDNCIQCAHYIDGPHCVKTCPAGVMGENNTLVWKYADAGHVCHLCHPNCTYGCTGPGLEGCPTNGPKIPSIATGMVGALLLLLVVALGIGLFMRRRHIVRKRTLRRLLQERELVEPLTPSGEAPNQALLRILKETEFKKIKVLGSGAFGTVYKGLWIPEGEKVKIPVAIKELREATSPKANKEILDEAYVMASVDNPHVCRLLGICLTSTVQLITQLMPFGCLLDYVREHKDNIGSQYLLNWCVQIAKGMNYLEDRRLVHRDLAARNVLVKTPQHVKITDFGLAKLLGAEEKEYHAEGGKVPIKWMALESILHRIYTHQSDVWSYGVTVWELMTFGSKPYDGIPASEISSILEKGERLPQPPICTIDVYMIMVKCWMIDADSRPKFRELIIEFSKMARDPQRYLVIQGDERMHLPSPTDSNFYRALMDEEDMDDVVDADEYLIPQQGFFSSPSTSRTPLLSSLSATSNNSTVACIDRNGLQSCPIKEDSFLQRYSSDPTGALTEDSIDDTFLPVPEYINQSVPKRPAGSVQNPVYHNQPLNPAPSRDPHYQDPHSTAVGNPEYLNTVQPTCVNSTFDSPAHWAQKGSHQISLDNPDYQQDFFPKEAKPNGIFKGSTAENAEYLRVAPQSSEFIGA
# [3] = biological target: T4, Ba/F3 cells with EGFR exon 20 ASV Ins V769_D770 (Homo sapiens, UniProt P00533, INS769ASV); assay: EGFR activity: Ba/F3 cell viability (CellTiter-Glo, 72 h), EGFR exon 20 ASV insertion; details: EGFR exon 20 ASV Ins V769_D770, cell viability, read-out: BaF3 ASV IC50
# T4 construct: expressed in transfected cells; host or cells: Ba/F3 (murine pro-B cells), retroviral transduction, puromycin selection, IL3-independent pool
# T4 sequence (P00533 with tags, fused parts or gaps INS769ASV): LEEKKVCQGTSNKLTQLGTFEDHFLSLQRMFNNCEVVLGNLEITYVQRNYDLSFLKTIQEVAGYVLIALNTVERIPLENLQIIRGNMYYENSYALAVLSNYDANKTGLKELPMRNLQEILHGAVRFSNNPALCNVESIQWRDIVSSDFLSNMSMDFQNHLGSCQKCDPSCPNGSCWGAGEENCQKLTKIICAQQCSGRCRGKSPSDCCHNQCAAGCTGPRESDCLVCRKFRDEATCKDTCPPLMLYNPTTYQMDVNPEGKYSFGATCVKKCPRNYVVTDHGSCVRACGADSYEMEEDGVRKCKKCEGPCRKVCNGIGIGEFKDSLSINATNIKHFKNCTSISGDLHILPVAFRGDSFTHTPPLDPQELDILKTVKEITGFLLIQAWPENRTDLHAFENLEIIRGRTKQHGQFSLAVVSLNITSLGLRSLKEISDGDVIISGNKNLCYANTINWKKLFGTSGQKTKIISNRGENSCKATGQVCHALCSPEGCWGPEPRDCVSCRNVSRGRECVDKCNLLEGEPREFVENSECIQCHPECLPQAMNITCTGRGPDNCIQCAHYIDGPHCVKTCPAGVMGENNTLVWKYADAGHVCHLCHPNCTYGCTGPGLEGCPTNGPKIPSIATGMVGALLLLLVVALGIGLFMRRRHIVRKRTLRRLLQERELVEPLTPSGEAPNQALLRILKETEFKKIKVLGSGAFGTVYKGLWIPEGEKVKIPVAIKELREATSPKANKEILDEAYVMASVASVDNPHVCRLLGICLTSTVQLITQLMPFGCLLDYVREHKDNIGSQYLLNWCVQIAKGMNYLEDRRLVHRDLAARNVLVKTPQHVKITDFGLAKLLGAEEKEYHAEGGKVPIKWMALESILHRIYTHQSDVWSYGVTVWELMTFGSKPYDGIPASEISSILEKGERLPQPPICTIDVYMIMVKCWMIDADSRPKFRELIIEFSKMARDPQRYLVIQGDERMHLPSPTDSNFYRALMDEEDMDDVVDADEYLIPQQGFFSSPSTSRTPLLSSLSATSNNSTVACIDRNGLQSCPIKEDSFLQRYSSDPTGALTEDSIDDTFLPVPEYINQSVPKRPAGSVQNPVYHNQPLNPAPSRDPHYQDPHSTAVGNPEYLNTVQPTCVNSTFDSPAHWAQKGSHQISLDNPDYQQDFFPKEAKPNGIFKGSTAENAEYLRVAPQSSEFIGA
# pEGFR in CUTO14 cells = biological target: T5, pEGFR in CUTO14 cells (Homo sapiens, UniProt P00533, DUP767-769); assay: Inhibitor activity on EGFR phosphorylation (pEGFR AlphaLISA, 2 h), CUTO14 cells
# T5 construct: endogenous in cells; host or cells: CUTO14 cells
# Description: CUTO14 cells were obtained from Dr. Robert C. Doebele at the University of Colorado.
# Shake 350 rpm for 1 hr in the dark • 3.4 Prepare donor mix under low light conditions prior to use. Dispense 5 μL of donor mix to all the wells. Mix well on the shaker, seal and wrap in aluminum foil and incubate 1.5 hrs at room temperature in the dark • 3.5 Transfer 18.5 μL mixture to OptiPlate 384, and read using an Envision.
IC50 [1] [µM],IC50 (pEGFR in CUTO14 cells) [µM],SMILES,IC50 [2] [µM],IC50 (Ba/F3 cells with EGFR WT) [µM],IC50 [3] [µM]
< 0.1,–,"COc1c(Cl)cccc1Nc1c(-c2ccncc2OC[C@H]2CCCN2C(C)=O)[nH]c2c1C(=O)NCC2 [Compound 141b, 2-(3-[[(2R)-1-acetylpyrrolidin-2-yl]methoxy]pyridin-4-yl)-3-[(3-chloro-2-methoxyphenyl)amino]-1H,5H,6H,7H-pyrrolo[3,2-c]pyridin-4-one]",> 1,> 1,–
< 0.1,–,"COc1c(Cl)cccc1Nc1c(-c2ccncc2OC[C@@H]2CN(C(C)=O)CCO2)[nH]c2c1C(=O)NCC2 [compound 195, 2-(3-{[(2S)-4-acetylmorpholin-2-yl]methoxy}pyridin-4-yl)-3-[(3-chloro-2-methoxyphenyl)amino]-1H,5H,6H,7H-pyrrolo[3,2-c]pyridin-4-one]",–,–,–
< 0.1,–,"C=CC(=O)N1CCC[C@@]1(C)C#Cc1cnccc1-c1[nH]c2c(c1Nc1cccc(F)c1OC)C(=O)NCC2 [compound 246, 3-[(3-fluoro-2-methoxyphenyl)amino]-2-(3-{2-[(2S)-2-methyl-1-(prop-2-enoyl)pyrrolidin-2-yl]ethynyl}pyridin-4-yl)-1H,5H,6H,7H-pyrrolo[3,2-c]pyridin-4-one]",–,–,–
–,< 0.1,COc1c(Cl)cccc1Nc1c(-c2ccncc2C#C[C@H]2CCN2C(=O)/C=C/CN(C)C)[nH]c2c1C(=O)NCC2 [compound 456],< 0.1,0.1 to 1,< 0.1
–,< 0.1,COc1c(Cl)cccc1Nc1c(-c2ccncc2C#C[C@@H]2CCN2C(=O)/C=C/CN(C)C)[nH]c2c1C(=O)NCC2 [compound 457],< 0.1,< 0.1,< 0.1
< 0.1,–,"COc1c(Cl)cccc1Nc1c(-c2ccncc2C#C[C@H]2COCCN2C)[nH]c2c1C(=O)NCC2 [compound 494, 3-[(3-chloro-2-methoxyphenyl)amino]-2-(3-[2-[(3S)-4-methylmorpholin-3-yl]ethynyl]pyridin-4-yl)-1H,5H,6H,7H-pyrrolo[3,2-c]pyridin-4-one]",–,–,–
< 0.1,–,"C=CC(=O)N1CCOC[C@H]1C#Cc1cnccc1-c1[nH]c2c(c1Nc1cccc(Cl)c1OC)C(=O)NCC2 [compound 514, 3-[(3-chloro-2-methoxyphenyl)amino]-2-(3-{2-[(3R)-4-(prop-2-enoyl)morpholin-3-yl]ethynyl}pyridin-4-yl)-1H,5H,6H,7H-pyrrolo[3,2-c]pyridin-4-one]",–,–,–
< 0.1,–,"C=CC(=O)N1CCOC[C@@H]1C#Cc1cnccc1-c1[nH]c2c(c1Nc1cccc(Cl)c1OC)C(=O)NCC2 [compound 515, 3-[(3-chloro-2-methoxyphenyl)amino]-2-(3-{2-[(3S)-4-(prop-2-enoyl)morpholin-3-yl]ethynyl}pyridine-4-yl)-1H,5H,6H,7H-pyrrolo[3,2-c]pyridin-4-one]",–,–,–
–,0.1 to 1,C=CC(=O)N1CCN(C)C[C@@H]1COc1cnccc1-c1[nH]c2c(c1Nc1cccc(Cl)c1OC)C(=O)NCC2 [compound 565],0.1 to 1,> 1,0.1 to 1
–,< 0.1,C=CC(=O)N1CCN(C)C[C@H]1COc1cnccc1-c1[nH]c2c(c1Nc1cccc(Cl)c1OC)C(=O)NCC2 [compound 568],< 0.1,0.1 to 1,< 0.1

# Further lines, the molecule ahead of its results:
SMILES,IC50 [1] [µM],IC50 (pEGFR in CUTO14 cells) [µM],IC50 [2] [µM],IC50 (Ba/F3 cells with EGFR WT) [µM],IC50 [3] [µM]
"COc1c(F)cccc1Nc1c(-c2ccncc2OCC2CCc3nccn32)[nH]c2c1C(=O)NCC2 (stereo not drawn) [Compound 128, 2-(3-((6,7-dihydro-5H-pyrrolo[1,2-a]imidazol-5-yl)methoxy)pyridin-4-yl)-3-((3-fluoro-2-methoxyphenyl)amino)-1,5,6,7-tetrahydro-4H-pyrrolo[3,2-c]pyridin-4-one]",> 1,–,> 1,> 1,–
"COc1c(F)cccc1Nc1c(-c2ccncc2OCc2nnc3n2CCC3)[nH]c2c1C(=O)NCC2 [Compound 131, 3-[(3-fluoro-2-methoxyphenyl)amino]-2-(3-[5H,6H,7H-pyrrolo[2,1-c][1,2,4]triazol-3-ylmethoxy]pyridin-4-yl)-1H,5H,6H,7H-pyrrolo[3,2-c]pyridin-4-one]",> 1,–,> 1,> 1,–
"COc1c(Cl)cccc1Nc1c(-c2ccncc2OC[C@@H]2CCCN2C(C)=O)[nH]c2c1C(=O)NCC2 [Compound 141a, (S)-2-(3-((1-acetylpyrrolidin-2-yl)methoxy)pyridin-4-yl)-3-((3-chloro-2-methoxyphenyl)amino)-1,5,6,7-tetrahydro-4H-pyrrolo[3,2-c]pyridin-4-one]",0.1 to 1,–,> 1,> 1,–
"COc1c(F)cccc1Nc1c(-c2ccncc2OCn2nnc3ccccc32)[nH]c2c1C(=O)NCC2 [Compound 479, 2-[3-(1,2,3-benzotriazol-1-ylmethoxy)pyridin-4-yl]-3-[(3-fluoro-2-methoxyphenyl)amino]-1H,5H,6H,7H-pyrrolo[3,2-c]pyridin-4-one]",0.1 to 1,–,> 1,> 1,–
"COc1c(Cl)cccc1Nc1c(-c2ccncc2OC[C@@H]2CCN2S(C)(=O)=O)[nH]c2c1C(=O)NCC2 [compound 192, 3-[(3-chloro-2-methoxyphenyl)amino]-2-(3-{[(2S)-1-methanesulfonylazetidin-2-yl]methoxy}pyridin-4-yl)-1H,5H,6H,7H-pyrrolo[3,2-c]pyridin-4-one]",< 0.1,–,–,–,–
"C=CC(=O)N1CCC[C@H]1COc1cnccc1-c1[nH]c2c(c1Nc1cccc(F)c1OC)C(=O)NCC2 [compound 212, 3-[(3-fluoro-2-methoxyphenyl)amino]-2-(3-{[(2S)-1-(prop-2-enoyl)pyrrolidin-2-yl]methoxy}pyridine-4-yl)-1H,5H,6H,7H-pyrrolo[3,2-c]pyridin-4-one]",< 0.1,–,–,–,–
Cc1c(F)cccc1Nc1c(-c2ccncc2C#C[C@@]2(C)CCCN2C(=O)/C=C/CN(C)C)[nH]c2c1C(=O)NCC2 [compound 450],–,< 0.1,< 0.1,0.1 to 1,< 0.1
Cc1c(F)cccc1Nc1c(-c2ccncc2C#CC23CC(CN2C(=O)/C=C/CN(C)C)C3)[nH]c2c1C(=O)NCC2 [compound 451],–,< 0.1,< 0.1,0.1 to 1,< 0.1
C=CC(=O)N1CC2CC1(C#Cc1cnccc1-c1[nH]c3c(c1Nc1cccc(F)c1C)C(=O)NCC3)C2 [compound 452],–,< 0.1,< 0.1,0.1 to 1,< 0.1
CCc1c(F)cccc1Nc1c(-c2ccncc2C#CC(C)(C)NC(=O)/C=C/CN(C)C)[nH]c2c1C(=O)NCC2 [compound 453],–,< 0.1,< 0.1,0.1 to 1,< 0.1
COc1c(F)cccc1Nc1c(-c2ccncc2C#CC2(C)CCN2C(=O)/C=C/CN(C)C)[nH]c2c1C(=O)NCC2 (stereo not drawn) [compound 462],–,> 1,> 1,> 1,> 1
COc1c(F)cccc1Nc1c(-c2ccncc2C#CC(C)(C)NC(=O)/C=C/CN2CC(F)C2)[nH]c2c1C(=O)NCC2 [compound 463],–,< 0.1,< 0.1,> 1,0.1 to 1
COc1c(F)cccc1Nc1c(-c2ccncc2C#CC(C)(C)NC(=O)/C=C/CN2CCN(C)CC2)[nH]c2c1C(=O)NCC2 [compound 464],–,0.1 to 1,> 1,> 1,> 1
COc1c(F)cccc1Nc1c(-c2ccncc2C#CC(C)(C)NC(=O)C#CCN(C)C)[nH]c2c1C(=O)NCC2 [compound 465],–,< 0.1,< 0.1,0.1 to 1,< 0.1
"COc1c(Cl)cccc1Nc1c(-c2ccncc2OCc2ccco2)[nH]c2c1C(=O)NCC2 [compound 471, 3-[(3-chloro-2-methoxyphenyl)amino]-2-[3-(furan-2-ylmethoxy)pyridin-4-yl]-1H,5H,6H,7H-pyrrolo[3,2-c]pyridin-4-one]",> 1,–,–,–,–
"COc1c(F)cccc1Nc1c(-c2ccncc2Oc2cnn(C)c2)[nH]c2c1C(=O)NCC2 [compound 484, 3-[(3-fluoro-2-methoxyphenyl)amino]-2-[3-[(1-methylpyrazol-4-yl)oxy]pyridin-4-yl]-1H,5H,6H,7H-pyrrolo[3,2-c]pyridin-4-one]",> 1,–,–,–,–
C=CC(=O)N1CCN(C)C[C@@H]1COc1cnccc1-c1[nH]c2c(c1Nc1cccc(F)c1OC)C(=O)NCC2 [compound 566],–,> 1,0.1 to 1,> 1,> 1
C=C(F)C(=O)N1CC[C@@H]1COc1cnccc1-c1[nH]c2c(c1Nc1cccc(F)c1C)C(=O)NCC2 [compound 567],–,< 0.1,< 0.1,0.1 to 1,0.1 to 1
C=CC(=O)N1CCN(C)C[C@H]1COc1cnccc1-c1[nH]c2c(c1Nc1cccc(F)c1OC)C(=O)NCC2 [compound 569],–,< 0.1,< 0.1,0.1 to 1,< 0.1
